How the values were obtained:
[1] = molecular target: T1, human matrix metalloproteinase-2 (MMP-2; gelatinase A) (Homo sapiens, UniProt P08253); assay: Inhibition of human matrix metalloproteinase-2 (gelatinase A); type: biochemical; conditions: trypsin-activated MMP-2 from human dermal fibroblast culture supernatant; read-out: MMP-2 (50% inhibition)
T1 construct: to prepare the enzymatically active mature form of the enzyme; endogenous in cells; host or cells: human dermal fibroblasts (secreted into culture supernatant)
T1 sequence (P08253 110-660): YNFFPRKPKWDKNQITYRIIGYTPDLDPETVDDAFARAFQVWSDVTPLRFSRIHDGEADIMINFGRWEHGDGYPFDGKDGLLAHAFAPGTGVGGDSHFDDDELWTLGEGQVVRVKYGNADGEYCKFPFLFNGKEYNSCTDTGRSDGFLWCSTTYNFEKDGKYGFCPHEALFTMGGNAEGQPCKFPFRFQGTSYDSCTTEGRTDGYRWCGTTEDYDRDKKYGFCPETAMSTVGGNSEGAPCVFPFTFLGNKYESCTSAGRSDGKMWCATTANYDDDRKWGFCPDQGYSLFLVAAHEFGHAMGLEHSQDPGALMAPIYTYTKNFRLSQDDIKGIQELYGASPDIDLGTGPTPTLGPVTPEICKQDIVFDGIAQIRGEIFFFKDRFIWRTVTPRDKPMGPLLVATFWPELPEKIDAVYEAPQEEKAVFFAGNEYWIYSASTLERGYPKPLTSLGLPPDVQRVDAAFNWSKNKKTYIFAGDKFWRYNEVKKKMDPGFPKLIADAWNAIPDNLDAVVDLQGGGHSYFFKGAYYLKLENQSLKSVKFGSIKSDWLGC
From the text: MMP-2 is easily prepared by standard procedures from the culture medium of cultivated human fibroblasts in reasonable quantities, and is therefore readily available. […] A screening system based on the measurement of the proteolytic activity of MMP-2 was developed to analyse the inhibitory effects of the various inhibitors described in Table 1.
To this end, human dermal fibroblasts were obtained and maintained in culture using standard methods. The cell-free culture supernatant containing the secreted pro-MMP-2 was treated with trypsin. The trypsin was inactivated with the specific active-site serine proteinase inhibitor Nα-p-tosyl-L-lysine-chloromethylketone (TLCK), and the active MMP-2 was partially purified by gel filtration on Sepharose 4B. The isolated MMP-2 was identified and characterized by the use of a commercially available immunoassay.
A simple nonradioactive assay was developed to measure MMP-2 activity using gelatin as a substrate that allows both a large number of samples to be analysed in parallel and to generate kinetic data. Partially purified MMP-2 was incubated with a suitable dilution of gelatin under standardized conditions (time, buffer, pH, temperature, inhibitor, additives), and uncleaved gelatin was separated from degradation products by suction filtration through a nitrocellulose filter. High-molecular-weight gelatin is thereby bound to the nitrocellulose filter, and the low-molecular-weight gelatin-derived peptides pass through it. The nitrocellulose-bound gelatin can be stained with Ponceau S or Commassie Brilliant Blue protein stains, and the degree of staining quantified densitometrically using a commercially available electrophoresis gel documentation system supported by dedicated analytical software. The nitrocellulose filtration is conducted using a commercially available dot- or slot-blotting apparatus.
The gelatinase assay described here has been validated by comparison with results obtained with an established collagenase assay using radioactive or fluorescently labeled collagen as substrate.
(§1) The enzymatic cleavage of commercially available synthetic internally quenched fluorigenic peptide substrates such as 7-methylcoumarin-4-yl-acetyl-prolyleucyl-glycyl-leucyl-(dinitrophenyl-L-α,β-diaminopropionyl)-alanyl-arginylamide (Mca-Pro-Leu-Gly-Leu-Dap(Dnp)-Ala-Arg-NH2) at the scissile -Gly-Leu-peptide bond separates the fluorescent Mca group from the dinitrophenol quencher, resulting in a strong linear increase in fluorescence intensity that can be readily measured in a fluorimeter (λexitation328 nm, λemission 393 nm) over the first few minutes of the reaction. The specificity of the assay for matrix metalloproteinases is provided by the type I collagen-derived sequence -Pro-Leu-Gly-Leu- in the synthetic substrate, as well as by the incubation conditions. To test the efficacy of the synthetic collagenase/MMP inhibitors, the residual enzymatic activity remaining after an incubation of enzyme plus different amounts of inhibitor is measured at a fixed enzyme and substrate concentration. For each inhibitor, three test series at different fixed substrate concentrations were carried out. From the time-dependent increase in fluorescence intensity measured, the velocity (v) of the enzymatic activity can be calculated as increase in arbitrary fluorescence intensity units per minute. The inhibition constant Ki is calculated graphically by the method of Dixon (1953) by plotting the reciprocal of the reaction velocity 1/v on the ordinate, and the inhibitor concentration on the abscissa. The x-intercept of the linear plot is defined as minus K1 value.
1984 μl assay buffer (100 mM Tris-HCl pH 7,5, 100 mM NaCl, 10 mM CaCl2, 0,05% Brij 35) • 2 μl inhibitor dissolved in DMSO, or DMSO alone as a solvent control • 4 μl enzyme (MMP-2, MMP-9, or the catalytic domain of MMP-8) • 10 μl Mca-Pro-Leu-Gly-Leu-Dap(Dnp)-Ala-Arg-NH2 in DMSO Method • 1. […]

[2] = molecular target: T2, catalytic domain of human matrix metalloproteinase-8 (MMP-8; neutrophil collagenase) (Homo sapiens, UniProt P22894); assay: Inhibition of catalytic domain of human MMP-8, fluorimetric assay, Dixon plot; type: biochemical; conditions: recombinant catalytic domain, Mca-Pro-Leu-Gly-Leu-Dap(Dnp)-Ala-Arg-NH2 substrate
T2 construct: express heterologously only the catalytic domain, rather than the entire MMP-8, in Escherichia coli; made in house; host or cells: Escherichia coli
T2 sequence (P22894 100-262 limits assumed): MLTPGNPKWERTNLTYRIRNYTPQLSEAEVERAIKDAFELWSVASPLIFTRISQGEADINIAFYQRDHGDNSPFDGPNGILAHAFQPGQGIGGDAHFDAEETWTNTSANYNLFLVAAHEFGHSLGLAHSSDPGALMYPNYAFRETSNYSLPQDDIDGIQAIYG
From the text: The catalytic domain of MMP-8 was chosen as a further test enzyme because of its high stability and constitutive activity, obviating the need for enzymatic or chemical activation, which is a well-known source of error, e.g. the commonly used organomercurial compounds used to activate pro-MMPs may interfere in subsequent assays or affect the activity of the enzyme, leading to erroneous interpretation of results. The cloning strategy was designed to express heterologously only the catalytic domain, rather than the entire MMP-8, in Escherichia coli. With the so-constructed expressed catalytic domain, we obtained a stable enzymatically active, highly pure enzyme that is well suited for routine investigation of the efficacy of the synthetic inhibitors and provides highly reproducible test results.
The cloning and expression of the recombinant catalytic domain of MMP-8 follows the protocol developed by Schnierer et al. (Schnierer, S., Kleine, T., Gote, T., Hilleman, A., Knäuper, V., and Tschesche, H., 1993, The recombinant catalytic domain of human neutrophil collagenase lacks type I collagen substrate specificity, Biochem. Biophys. Res. Commun. 191, 319-326).
as §1
1984 μl assay buffer (100 mM Tris-HCl pH 7,5, 100 mM NaCl, 10 mM CaCl2, 0,05% Brij 35) • 2 μl inhibitor dissolved in DMSO, or DMSO alone as a solvent control • 4 μl enzyme (MMP-2, MMP-9, or the catalytic domain of MMP-8) • 10 μl Mca-Pro-Leu-Gly-Leu-Dap(Dnp)-Ala-Arg-NH2 in DMSO Method • 1. Incubate buffer, enzyme, and inhibitor for 5 min at room temperature, with stirring. • 2. Start the reaction by adding 10 μl substrate in DMSO • 3. Record the increase in fluorescence intensity over 2 min. Confirmation of the Inhibitory Activity by Protein Zymographic Analysis

| MMP-8 (Ki value) [2] | SMILES | IC50 [1] | Ki [2] |
| --- | --- | --- | --- |
| – | CC(S)CCn1c(=O)[nH]c(=O)c2ccccc21 (racemic) [Example 3, (R,S)-1-(3-mercaptobut-1-yl)-chinazolin-2,4(1H,3H)-dione] | 13.2 µM | 38.5 µM |
| – | CC(CCS)n1c(=O)[nH]c2ccccc2c1=O (racemic) [Example 18, (R,S)-3-[3-(1-methyl)-mercaptopropyl]-chinazolin-2,4(1H,3H)-dione] | 8.3 µM | 6 µM |
| – | O=c1[nH]c(=O)n(CCCS)c2ccccc12 [Example 4, 1-(3-mercaptopropyl)-chinazolin-2,4(1H,3H)-dione] | 5 µM | 7 µM |
| – | O=c1[nH]c(=O)n(CCS)c2ccccc12 [Example 5, 1-(2-mercaptoethyl)-chinazolin-2,4(1H,3H)-dione] | 61.3 µM | 70 µM |
| – | O=c1[nH]c2ccccc2c(=O)n1CCCCS [Example 12, 3-(4-mercaptobut-1-yl)-chinazolin-2,4(1H,3H)-dione] | 8.3 µM | 11 µM |
| negative | Cn1c(=O)c2sccc2n(CCCS)c1=O [Example 14, 1-(3-mercaptoprop-1-yl)-3-methyl-thieno(3,2-d)-pyrimidin-2,4(1H,3H)-dione] | 20 µM | – |
| negative | Cn1c(=O)c2sccc2n(CCS)c1=O [Example 17, 1-(2-mercaptoethyl)-3-methyl-thieno[3,2-d]-pyrimidine-2,4(1H,3H)-dione] | 20 µM | – |

| SMILES | MMP-8 (Ki value) [2] | IC50 [1] | Ki [2] |
| --- | --- | --- | --- |
| Cn1c(=O)c2ccccc2n(CCCS)c1=O [Example 7, 1-(3-mercaptoprop-1-yl)-3-methyl-chinazolin-2,4(1H,3H)-dione] | negative | 6 µM | – |
